Laboratory results reported in patent publication US9132127B2, “Substituted pyrido[2,3-B]pyrazines as IP receptor agonists” (Novartis AG, priority 2010, dated 2015).
Where two headings read alike, the source gives them in different places.

Target: T1, IP receptor (Homo sapiens, UniProt P43119)
T1 construct: expressed in transfected cells; host or cells: CHO cells stably expressing the IP receptor (CHO-IP)
Assay: cAMP accumulation in CHO cells stably expressing the IP receptor (CHO-IP), PerkinElmer AlphaScreen assay
Format: cell-based
Description: Activity of compounds at the IP receptor (IP receptor) is assessed by measuring cAMP accumulation in CHO cells stably expressing the IP receptor (CHO-IP) using the PerkinElmer AlphaScreen assay. This technology measures the endogenous production of cAMP, in a non-radioactive luminescence proximity homogenous assay. A biological reaction occurs between streptavidin coated donor beads, biotinylated cAMP and anti-cAMP acceptor beads, bringing the donor and acceptor beads close enough together so that upon excitation a fluorescence signal is produced. On production of endogenous cAMP, competition between the biotinylated cAMP and cellular-derived cAMP causes a reduction in the fluorescent signal. The reduction in signal is proportional to the amount of cAMP being produced, thus it is possible to quantify the amount of cAMP being produced on stimulation with agonist.
Test and reference compounds are prepared at 100×[final] in 100% DMSO, and diluted 1:3 using a Biomek Fx (Beckman Coulter). This is followed by an intermediate dilution to give 5×[final] in assay buffer (HBSS containing 5 mM HEPES, 0.1% (w/v) BSA). 5 μL of 5×[final] test compounds, reference compounds and buffer/DMSO control are then transferred to a 384-well white OptiPlate, containing 20 μL CHO—IP cell suspension (15,000 cells/well, prepared from frozen), and plate is incubated at room temperature for 1 hour. A cAMP standard curve is constructed for each experiment (concentration range of 10000 nM to 0.001 nM, in assay buffer) and 25 μL of each concentration added to the last two columns of the assay plate. The incubation is terminated by the addition of lysis buffer (dH2O; 0.3% (v v^−1) Tween-20) containing 20 units mL^−1 streptavidin coated donor beads and biotinylated cAMP (pre-incubated for 30 minutes) and 20 units mL^−1 anti-cAMP acceptor beads, which are added to the lysis buffer just before addition to the assay plate. The assay plate is then incubated at room temperature in the dark, for 60 minutes with gentle shaking, and read on the Envision plate reader (Perkin Elmer).
The raw data of the reference compounds, test compounds and controls are converted into cAMP concentrations, using the cAMP standard curve, in GraphPadPrism (GraphPad Software Inc). EC50 as well as maximal values of the agonist curves are determined using a 4-parameter logistic equation. The % maximum response values of all test compounds are determined using the top of the treprostinil concentration-response curve.

[1] = 1 hour at room temperature, Table 1, read-out: EC50
[2] = read-out: EC50 values in the data measurements described above

T1 sequence (P43119 whole entry): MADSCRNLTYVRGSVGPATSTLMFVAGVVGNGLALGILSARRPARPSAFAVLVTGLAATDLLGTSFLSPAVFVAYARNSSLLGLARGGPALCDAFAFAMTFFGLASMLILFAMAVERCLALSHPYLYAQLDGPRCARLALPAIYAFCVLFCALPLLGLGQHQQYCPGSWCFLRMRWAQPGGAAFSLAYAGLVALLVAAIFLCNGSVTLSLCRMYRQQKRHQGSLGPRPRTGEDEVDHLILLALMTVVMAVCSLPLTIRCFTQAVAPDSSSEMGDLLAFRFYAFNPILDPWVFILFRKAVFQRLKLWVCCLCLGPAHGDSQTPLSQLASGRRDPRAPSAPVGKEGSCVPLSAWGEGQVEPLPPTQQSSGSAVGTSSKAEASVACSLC

Row | EC50 [1] | EC50 [2] | Structure (SMILES)
1 | 0.11 nM |  | Cc1ccc(-c2nc3c(nc2-c2ccc(C)cc2)N(CCCCCCC(=O)O)CCC3)cc1 [Example 4.3, 7-(2,3-Dip-tolyl-7,8-dihydropyrido[2,3-b]pyrazin-5(6H)-yl)heptanoic acid]
2 |  | > 10000 nM | O=C(O)CCCCN1CCCc2cc(-c3ccccc3)c(-c3ccccc3)nc21 [5-(6,7-diphenyl-3,4-dihydro-1,8-naphthyridin-1(2H)-yl)pentanoic acid]
3 | 0.32 nM |  | Cc1ccc(-c2nc3c(nc2-c2ccc(C)c(F)c2)N(CCCCCCC(=O)O)CCC3)cc1F [Example 6.1, 7-(2,3-bis(3-Fluoro-4-methylphenyl)-7,8-dihydropyrido[2,3-b]pyrazin-5(6H)-yl)heptanoic acid]
4 | 5.6 nM |  | O=C(O)CCCCCCN1CC[C@@H](O)c2nc(-c3ccccc3)c(-c3ccccc3)nc21 [Example 9.1, (R)-7-(8-Hydroxy-2,3-diphenyl-7,8-dihydropyrido[2,3-b]pyrazin-5(6H)-yl)heptanoic acid]
5 | 1.8 nM |  | Cc1ccc(-c2nc3c(nc2-c2ccc(C)cc2)N(CCCCCCC(=O)O)CCC3O)cc1 (single isomer, unassigned) [Example 9.8b, 7-(8-Hydroxy-2,3-dip-tolyl-7,8-dihydropyrido[2,3-b]pyrazin-5(6H)-yl)heptanoic acid]
6 | 245 nM |  | CC1CCc2cc(-c3ccccc3)c(-c3ccccc3)nc2N1CCCCCCC(=O)O (single isomer, unassigned) [Example 3.2, 7-(2-methyl-6,7-diphenyl-3,4-dihydro-1,8-naphthyridin-1(2H)-yl)heptanoic acid]
7 |  | > 10000 nM | CCOC(=O)CCCCCCN1CCCc2nc(-c3cccc(C)c3)c(-c3ccc(C)cc3)nc21 [ethyl 7-(2-(m-tolyl)-3-(p-tolyl)-7,8-dihydropyrido[2,3-b]pyrazin-5(6H)-yl)heptanoate]
8 | 0.296 nM |  | Cc1ccc(-c2nc3c(nc2-c2ccc(C)cc2)N(CCCCCCC(=O)O)CCC3O)cc1 (single isomer, unassigned) [Example 9.8, rac-7-(8-Hydroxy-2,3-dip-tolyl-7,8-dihydropyrido[2,3-b]pyrazin-5(6H)-yl)heptanoic acid]
9 | 8.6 nM |  | O=C(O)CCCCCCN1CC[C@H](O)c2nc(-c3ccccc3)c(-c3ccccc3)nc21 [Example 9.2, (S)-7-(8-Hydroxy-2,3-diphenyl-7,8-dihydropyrido[2,3-b]pyrazin-5(6H)-yl)heptanoic acid]
10 | 1.2 nM |  | O=C(O)CCCCCCN1CCCc2nc(-c3ccccc3)c(-c3ccccc3)nc21 [Example 4.1, 7-(2,3-diphenyl-7,8-dihydropyrido[3,2-b]pyrazin-5(6H)-yl)heptanoic acid]
11 | 4.8 nM |  | COC1Cc2nc(-c3ccc(C)cc3)c(-c3ccc(C)cc3)nc2N(CCCCCCC(=O)O)C1 (single isomer, unassigned) [Example 17.1b, 7-(7-methoxy-2,3-dip-tolyl-7,8-dihydropyrido[2,3-b]pyrazin-5(6H)-yl)heptanoic acid]
12 | 0.08 nM |  | Cc1ccc(-c2nc3c(nc2-c2ccccc2)CCCN3CCCCCCC(=O)O)cc1 [Example 5.2, 7-(2-Phenyl-3-p-tolyl-7,8-dihydropyrido[2,3-b]pyrazin-5(6H)-yl)heptanoic acid]
13 | 0.49 nM |  | Cc1ccc(-c2nc3c(nc2-c2ccc(C)cc2)N(CCCCCCC(=O)O)CC(O)C3O)cc1 (single isomer, unassigned) [Example 8.2a, 7-(7,8-dihydroxy-2,3-dip-tolyl-7,8-dihydropyrido[2,3-b]pyrazin-5(6H)-yl)heptanoic acid]
14 | 0.74 nM |  | Cc1ccc(-c2nc3c(nc2-c2ccc(C)cc2)N(CCCCCCC(=O)O)C(=O)C(O)C3)cc1 (stereo not shown) [Example 16.1, 7-(7-Hydroxy-6-oxo-2,3-dip-tolyl-7,8-dihydropyrido[2,3-b]pyrazin-5(6H)-yl)heptanoic acid]
15 |  | > 10000 nM | CCCc1ccc(-c2nc3c(nc2-c2ccc(CCC)cc2)N(CCCCCC(=O)OCC)CCC3)cc1 [ethyl 6-(2,3-bis(4-propylphenyl)-7,8-dihydropyrido[2,3-b]pyrazin-5(6H)-yl)hexanoate]
16 | 0.13 nM |  | Cc1ccc(-c2nc3c(nc2-c2ccc(C)cc2)N(CCCCCCC(=O)O)C(C)CC3)cc1 (single isomer, unassigned) [Example 4.14, 7-(6-methyl-2,3-dip-tolyl-7,8-dihydropyrido[2,3-b]pyrazin-5(6H)-yl)heptanoic acid]
17 | 0.4 nM |  | Cc1ccc(-c2nc3c(nc2-c2ccc(C)cc2)N(CCCCCCC(=O)O)CCC3O)cc1 (single isomer, unassigned) [Example 9.8a, 7-(8-Hydroxy-2,3-dip-tolyl-7,8-dihydropyrido[2,3-b]pyrazin-5(6H)-yl)heptanoic acid]
18 | 100 nM |  | CN1c2nc(-c3ccccc3)c(-c3ccccc3)cc2CCC1CCCCCC(=O)O (single isomer, unassigned) [Example 2.2, 6-(1-methyl-6,7-diphenyl-1,2,3,4-tetrahydro-1,8-naphthyridin-2-yl)hexanoic acid]
19 | 36 nM |  | CC1CCc2cc(-c3ccccc3)c(-c3ccccc3)nc2N1CCCCCCC(=O)O (single isomer, unassigned) [Example 3.1, 7-(2-methyl-6,7-diphenyl-3,4-dihydro-1,8-naphthyridin-1(2H)-yl)heptanoic acid]
20 | 0.48 nM |  | Cc1ccc(-c2nc3c(nc2-c2ccc(C)cc2)N(CCCCCCC(=O)O)C(C)CC3)cc1 (single isomer, unassigned) [Example 4.15, 7-(6-methyl-2,3-dip-tolyl-7,8-dihydropyrido[2,3-b]pyrazin-5(6H)-yl)heptanoic acid]
21 | 0.89 nM |  | Cc1ccc(-c2nc3c(nc2-c2ccc(C)cc2)N(CCCCCCC(=O)O)CC(O)C3O)cc1 (single isomer, unassigned) [Example 8.2b, 7-(7,8-dihydroxy-2,3-dip-tolyl-7,8-dihydropyrido[2,3-b]pyrazin-5(6H)-yl)heptanoic acid]
22 | 0.0718 nM |  | Cc1ccc(-c2nc3c(nc2-c2ccc(C)cc2)N(CCCCCCC(=O)O)CC(O)C3)cc1 (single isomer, unassigned) [Example 14.1, 7-(7-hydroxy-2,3-dip-tolyl-7,8-dihydropyrido[2,3-b]pyrazin-5(6H)-yl)heptanoic acid]
23 | 30 nM |  | CN1c2nc(-c3ccccc3)c(-c3ccccc3)cc2CCC1CCCCCC(=O)O (single isomer, unassigned) [Example 2.1, 6-(1-methyl-6,7-diphenyl-1,2,3,4-tetrahydro-1,8-naphthyridin-2-yl)hexanoic acid]
24 | 0.0754 nM |  | Cc1ccc(-c2nc3c(nc2-c2ccc(C)cc2)N(CCCCCCC(=O)O)C(=O)CC3)cc1 [Example 12.1, 7-(6-oxo-2,3-dip-tolyl-7,8-dihydropyrido[2,3-b]pyrazin-5(6H)-yl)heptanoic acid]
25 | 57 nM |  | Cc1ccc(-c2nc3c(nc2-c2ccc(C)cc2)N(CCCC(O)C(O)CC(=O)O)CCC3)cc1 (racemic) [Example 15.1, rac-7-(2,3-Dip-tolyl-7,8-dihydropyrido[2,3-b]pyrazin-5(6H)-yl)-3,4-dihydroxyheptanoic acid]
26 | 0.0627 nM |  | Cc1ccc(-c2nc3c(nc2-c2ccc(C)cc2)N(CCCCCCC(=O)O)CC(O)C3)cc1 (single isomer, unassigned) [Example 14.2, 7-(7-hydroxy-2,3-dip-tolyl-7,8-dihydropyrido[2,3-b]pyrazin-5(6H)-yl)heptanoic acid]
27 | 3 nM |  | COC1Cc2nc(-c3ccc(C)cc3)c(-c3ccc(C)cc3)nc2N(CCCCCCC(=O)O)C1 (single isomer, unassigned) [Example 17.1a, 7-(7-methoxy-2,3-dip-tolyl-7,8-dihydropyrido[2,3-b]pyrazin-5(6H)-yl)heptanoic acid]
28 | 5.5 nM |  | O=C(O)CCCCCCN1CCCc2cc(-c3ccccc3)c(-c3ccccc3)nc21 [Example 1.1, 7-(6,7-Diphenyl-3,4-dihydro-1,8-naphthyridin-1(2H)-yl)heptanoic acid]
